Data taken from patent US20140178892A1, “SCREENING METHODS BASED ON VESICLE MOBILITY” (priority 2011, published 2014).
Each block holds one molecule with its values, some of them ahead of it.

What was measured:
[1] = system: dextran-labeled vesicles carrying MHC class II molecules in astrocytes; experiment: Mobility of Alexa Fluor 546 dextran-labeled MHC class II vesicles in control and IFNγ activated astrocytes; assay type: cell-based; settings: for average vesicle maximal displacement / average vesicle track length: FIG. 4
Source text: (§1) Cell organelles are stained by commercially available dyes and/or by cell transfection. E.g. peptidergic secretory vesicles are labeled by cell transfection for the secretory peptide—pro-atrial natriuretic peptide tagged with emerald green fluorescent protein (ANP.emd; see Han et al., Proc Natl Acad Sci USA. 1999; 96:14577-14582; Krian et al., J. Neurosci. 2003; 23(5):1580-3.). Glutamatergic vesicles are stained by cell transfection for vesicular glutamate transporter 1 tagged with green fluorescent protein (VGLUT1-GFP). ATP containing vesicles are stained by incubation of cells in quinacrine dihydrochloride (1 μM, 15 min at room temperature) (Pangrsic et al., J Biol. Chem. 2007; 28; 282(39):28749-58) and endosomes/lysosomes by incubation of cells in LysoTracker Red DND-99 (200 nM, 5 min, RT, Invitrogen) (Potokar et al., Glia. 2010; 58(10):1208-19). To observe MHC class II expression cells are loaded with 0.1 mg/ml Alexa Fluor^546 dextran (Molecular Probes, Invitrogen) for 16 hours at 37° C.
(§2) Cell cultures are treated with the biologically active substances (i.e. constituents of sera, cerebrospinal fluid and other biologically relevant small inorganic and organic substances, other related substances and mixtures of these), or with the reference standard compound, which consists of FTY720 and FTY720-phosphate (FTY720-P) in ratio from 1:0.1 to 1:100, dissolved in cell culture medium for 10 min at 18-37° C. To observe augmentation of the MHC class II molecule expression, cells are treated with interferon gamma (IFN-γ) for 48 hours at 37° C. or any other stimulant of the antigen presentation.
(§3) Cell loaded coverslips are then rinsed with extracellular solution (consisting of 10 mM HEPES/NaOH (pH 7.2), 10 mM D-glucose, 130 mM NaCl, 2 mM CaCl2, 2 mM MgCl2, and 5 mM KCl) and observed by fluorescence microscopy at 63× or 100× magnification using 488 nm Ar—Ion laser excitation (for ANP.emd, VGLUT1-GFP and quinacrine dihydrochloride) or 543 nm He—Ne laser exitation (for LysoTracker Red DND-99, Alexa Fluor^546 dextran), and band-pass filtered at 505-530 nm or long-pass filtered at 560 nm. Time-lapse fluorescence images are acquired at 0.5-2 Hz for 1-10 minutes to monitor vesicle mobility.
Cells can be stimulated with adenosine triphosphate (ATP) or any other stimulus of exocytotic release to record vesicle mobility and secretion before and after cell stimulation.
(§4) Vesicle traffic is analyzed by particle tracking software previously described (Potokar et al.; Biochem Biophys Res Commun. 2005; 329(2):678-83).
(§5) Several mobility parameters are determined for variable time epochs typically lasting 10-60 seconds: step length (displacement of a vesicle within the two successive frames), speed, track length (TL; the total path traveled by a vesicle within the defined time epoch), the vesicle maximal displacement (MD; a measure for the net translocation of a vesicle within the defined time epoch; cf. Wacker et al., J Cell Sci 110 (Pt 13):1453-63), the angle of MD and the directionality index (DI; the ratio of MD to TL).
The example of vesicle mobility modulation in relation to the antigen presentation in IFNγ activated astrocytes. […] Therefore the mobility analysis of dextran-labeled vesicles can be applied to describe the modulated mobility of the vesicles carrying MHC class II molecules upon stimulation of antigen presentation in astrocytes. […]

[2] = system: secretory vesicles in transfected astrocytes expressing ANP.emd; experiment: Mobility of fluorescently labeled (ANP.emd) secretory vesicles in cultured astrocytes, particle tracking of time-lapse fluorescence images; assay type: cell-based, rat; settings: for mean vesicle track length (TL) / mean vesicle maximal displacement (MD): 10 μM sphingosine, versus standard reference compound (Stand), 15 s epochs; for mean vesicle track length (TL): FIG. 2E; for mean vesicle maximal displacement (MD): FIG. 2F
Experimental: Cultured astrocytes, e.g. isolated as previously described by Schwartz & Wilson (Glia. 1992; 5(1):75-80) or any other cell type isolated from animal tissues or clonal cell lines derived from human or animal sources are seeded onto coverslips and maintained in an adequate cell cultured medium.
as §1
as §2, with “To observe augmentation of the MHC class II molecule expression, cells are treated with interferon gamma (IFN-γ) for 48 hours at 37° C. or any other stimulant of the antigen presentation.” left out
as §3, §4, §5
Example of the analysis of biologically active substances, such as sphingosine and immunoglobulin G (IgG) from human serum, on the mobility of secretory vesicles with respect to the effect of the standard compound, which is also the subject of the present invention. The example is shown in FIGS. 2E and F. The mobility of fluorescently labeled vesicles in transfected astrocytes expressing ANP.emd was analyzed by particle analyzing program Track2 and quantitative parameters of vesicle mobility were determined. […]

[3] = system: MHC class II molecules in astrocytes; experiment: MHC class II expression in astrocytes by immunostaining and fluorescence microscopy; assay type: cell-based; settings: IFNγ treated versus control astrocytes; overlay with dextran loaded structures; FIG. 3
Source text: as §1, with “C. […]” for “C.”

[4] = cell stimulation with 1 mM ATP, control and IFNγ treated cells
[5] = IFNγ treated astrocytes versus non-treated control cells (Spon.)

Molecule: Nc1ncnc2c1ncn2[C@@H]1O[C@H](COP(=O)(O)OP(=O)(O)OP(=O)(O)O)[C@@H](O)[C@H]1O [ATP, adenosine triphosphate]
average vesicle maximal displacement [1, 4]: reduces
average vesicle track length [1, 4]: reduces

mean vesicle maximal displacement (MD) [2]: significantly attenuates
mean vesicle maximal displacement (MD) ([2]; listed as Sphingosine): strongly attenuates
Molecule: CCCCCCCCCCCCC/C=C/[C@@H](O)[C@@H](N)CO [sphingosine]
mean vesicle track length (TL) [2]: significantly attenuates
mean vesicle track length (TL) ([2]; listed as Sphingosine): strongly attenuates
vesicle mobility ([2]; dependence on extracellular concentration, regions near the plasmalemma and deeper in the cytoplasm): dose-dependently attenuated

average vesicle maximal displacement [1, 5]: significantly increase
B1: IFNγ: cytokine interferon gamma (protein, UniProt P01579 24-161, looked up)
Interferon gamma: QDPYVKEAENLKKYFNAGHSDVADNGTLFLGILKNWKEESDRKIMQSQIVSFYFKLFKNFKDDQSIQKSVETIKEDMNVKFFNSNKKKRDDFEKLTNYSVTDLNVQRKAIHELIQVMAELSPAAKTGKRKRSQMLFRG
expression of MHC class II molecules [3]: induces
average vesicle track length [1, 5]: significantly increase
mobility, in particular long-range mobility, of MHC class II-positive vesicles ([1]; astrocytes exposed to interferon-γ): enhanced
